{
  "source": "patent US9078907B2",
  "about": "“Immunoregulator compounds” (Universita Degli Studi Di Roma “Tor Vergata”, priority 2001, dated 2015)",
  "key": {"macrophage PLD": {"tested_on": "macrophage PLD", "format": "cell-based, human"}, "Cathepsin D": {"tested_on": "Cathepsin D", "assay": "Western blot of Cathepsin D in macrophage phagosomal fractions after latex beads internalisation", "format": "cell-based, human", "details": "5 μM S1P, 24 hours after latex beads internalisation", "experimental": "In order to analyse the expression of an intralysosomal protein within beads containing phagolysosomes the macrophage phagosomal fraction was separated. Particularly, cells were incubated with sterile latex beads ([…]) (Sigma), 1: 200 diluted, in culture medium for 1 hour in the presence of 5% CO2 and then treated with 5 μM S1P.\nSeparation of the phagosomes was carried out by centrifugation on sucrose gradient. Cells were washed three times with PBS (twice for 10 minutes) and then again incubated for 24 hours at 37°C. Following the internalisation and 24 hour incubation period cells were washed with cold PBS and collected using a little scraper in PBS at 4° C., then centrifuged at 2000 rpm for 10 minutes at 4° C. and finally washed with homogenising buffer (250 mM sucrose, 3 mM imidazole, pH 7.4) again at 4° C. Cellular pellet was suspended in 1 ml homogenising buffer and cells were lysed with an homogenizer. Phagosomes were isolated by centrifugation on sucrose gradient. Cells, suspended in 1 ml of PBS, were added to 1 ml of 40% sucrose solution and such a suspension was stratified on 2 ml of 62% sucrose solution in ultracentrifuge tubes. Then 2 ml of 35%, 25% and 10% sucrose solutions were stratified (all the solutions were prepared in 3 mM imidazole, pH 7.4). The tubes were ultra-centrifuged using SW41 rotor at 100000 g at 4° C. […]"}},
  "data": [
    {"smiles": "CCCCCCCCCCCCC/C=C/[C@@H](O)[C@@H](N)COP(=O)(O)O", "note": "[S1P, D-erythro-sphingosine 1-phosphate]", "values": [
      {"measurement": "Pet-OH production, index of PLD activity, versus MTB infected non S1P treated macrophages", "setting": "macrophage PLD", "value": "higher"},
      {"measurement": "S1P concentration giving maximum activation of macrophage PLD", "setting": "macrophage PLD", "value": 5, "unit": "µM"},
      {"measurement": "time of maximum activation of macrophage PLD", "setting": "macrophage PLD", "value": 30, "unit": "min"},
      {"measurement": "amount of intralysosomal protein (Cathepsin D) in the phagosomal fraction versus non-treated macrophages", "setting": "Cathepsin D", "value": "higher"}
    ]}
  ]
}
